Measurements taken from ChEMBL document CHEMBL1130981, “DNA gyrase inhibitory activity of ellagic acid derivatives” (Bioorg Med Chem Lett, 1998).

target: DNA gyrase (Escherichia coli, UniProt P0AES4+P0AES6); experiment: Inhibition of DNA gyrase supercoiling in Escherichia coli.; assay type: protein-complex assay

| IC50 | Structure (SMILES) |
| --- | --- |
| > 2550 µM | O=c1oc2ccccc2c2ccccc12 |
| 53.2 µM | O=C1c2cc(O)c(O)cc2-c2cc(O)c(O)cc21 |
| 7.66 µM | ONC1c2cc(O)c(O)cc2-c2cc(O)c(O)cc21 |
| 151 µM | O=c1oc2c(F)c(F)ccc2c2cc(O)c(O)cc12 |
| 307 µM | O=c1oc2cc(O)c(O)cc2c2cc(O)c(O)cc12 |
| > 1920 µM | Cc1cc(O)c(O)c2oc(=O)c3ccc(F)cc3c12 |
| > 2190 µM | O=c1oc2ccccc2c2cc(O)c(O)cc12 |
| 447 µM | O=c1oc2c(O)c(O)ccc2c2cc(F)ccc12 |
| 511 µM | Cc1cc(O)c(O)c2oc(=O)c3cc(O)c(O)cc3c12 |
| 1500 µM | O=c1oc2cc(O)c(O)cc2c2cc(F)ccc12 |
| 500 µM | O=c1oc2c(O)c(O)ccc2c2cc(O)c(O)cc12 |
| 328 µM | O=c1oc2c(O)c(O)ccc2c2ccc(O)cc12 |
| 156 µM | O=c1oc2c(O)c(O)cc3c(=O)oc4c(O)c(O)cc1c4c23 [ELLAGIC ACID] |
| 942 µM | O=c1oc2c(Cl)c(Cl)ccc2c2cc(O)c(O)cc12 |
| > 2190 µM | O=c1oc2c(O)c(O)ccc2c2ccccc12 |
